Data taken from PubChem BioAssay (NCI).
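Values below derive from 48-hour exposures of cells grown in 96-well plates, with endpoints linearly interpolated between the two concentrations bracketing the appropriate inhibition level. TGI: concentration producing complete growth inhibition.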

Experiments:
Test in all cases: growth of human tumour cells (NCI), 48 h
[1] = test system: MCF7 breast
[2] = test system: SR leukemia
[3] = test system: NCI/ADR-RES ovarian
[4] = test system: UACC-62 melanoma
[5] = test system: SK-MEL-2 melanoma
[6] = test system: MOLT-4 leukemia
[7] = test system: HCT-116 colon
[8] = test system: 786-0 renal
[9] = test system: HOP-62 NSCLC
[10] = test system: CAKI-1 renal
[11] = test system: CCRF-CEM leukemia
[12] = test system: BT-549 breast
[13] = test system: M14 melanoma
[14] = test system: MDA-N
[15] = test system: OVCAR-3 ovarian
[16] = test system: SK-MEL-5 melanoma
[17] = test system: COLO 205 colon
[18] = test system: MDA-MB-231 breast
[19] = test system: SW-620 colon
[20] = test system: NCI-H460 lung
[21] = test system: UACC-257 melanoma
[22] = test system: A498 renal
[23] = test system: EKVX NSCLC
[24] = test system: TK-10 renal
[25] = test system: PC-3 prostate
[26] = test system: K-562 leukemia
[27] = test system: OVCAR-5 ovarian
[28] = test system: OVCAR-8 ovarian
[29] = test system: IGROV1 ovarian
[30] = test system: A549 NSCLC
[31] = test system: HCC-2998 colon
[32] = test system: RPMI-8226 leukemia
[33] = test system: RXF 393 renal
[34] = test system: UO-31 renal
[35] = test system: ACHN renal
[36] = test system: MALME-3M melanoma
[37] = test system: DU-145 prostate
[38] = test system: SN12C renal
[39] = test system: SK-OV-3 ovarian
[40] = test system: HT29 colon
[41] = test system: MDA-MB-435
[42] = test system: SK-MEL-28 melanoma
[43] = test system: T-47D breast
[44] = test system: KM12 colon
[45] = test system: OVCAR-4 ovarian
[46] = test system: HCT-15 colon
[47] = test system: SNB-19 CNS
[48] = test system: LOX IMVI melanoma
[49] = test system: NCI-H23 lung
[50] = test system: U251 CNS
[51] = test system: HL-60(TB) leukemia
[52] = test system: SF-539 CNS
[53] = test system: SF-268 CNS
[54] = test system: NCI-H522 lung
[55] = test system: SF-295 CNS
[56] = test system: HS 578T breast
[57] = test system: HOP-92 NSCLC
[58] = test system: SNB-75 CNS
[59] = test system: NCI-H226 lung

For CO[C@H]1/C=C/O[C@@]2(C)Oc3c(C)c(O)c4c(O)c(c(/C=N/N5CCN(C)CC5)c(O)c4c3C2=O)NC(=O)/C(C)=C\C=C\[C@H](C)[C@H](O)[C@@H](C)[C@@H](O)[C@@H](C)[C@H](OC(C)=O)[C@@H]1C, the TGI [1] was > 100 µM, the TGI [2] was 52.6 µM and the TGI [3] was > 100 µM. For the same compound, the TGI [4] was > 100 µM, the TGI [5] was > 100 µM and the TGI [6] was > 100 µM. The TGI [7] was > 100 µM, the TGI [8] was > 100 µM and the TGI [9] was > 100 µM. For the same compound, the TGI [10] was > 100 µM, the TGI [11] was 81.8 µM and the TGI [12] was > 100 µM. For the same compound, the TGI [13] was > 100 µM, the TGI [14] was > 100 µM and the TGI [15] was > 100 µM. For the same compound, the TGI [16] was > 100 µM, the TGI [17] was > 100 µM and the TGI [18] was > 100 µM. For the same compound, the TGI [19] was > 100 µM, the TGI [20] was > 100 µM and the TGI [21] was > 100 µM. The TGI [22] was > 100 µM, the TGI [23] was > 100 µM and the TGI [24] was > 100 µM. The TGI [25] was > 100 µM, the TGI [26] was > 100 µM and the TGI [27] was > 100 µM. For the same compound, the TGI [28] was > 100 µM, the TGI [29] was > 100 µM and the TGI [30] was > 100 µM. The TGI [31] was > 100 µM, the TGI [32] was > 100 µM and the TGI [33] was > 100 µM. The TGI [34] was > 100 µM, the TGI [35] was > 100 µM and the TGI [36] was > 100 µM. For the same compound, the TGI [37] was > 100 µM, the TGI [38] was > 100 µM and the TGI [39] was > 100 µM. The TGI [40] was > 100 µM, the TGI [41] was > 100 µM and the TGI [42] was > 100 µM. The TGI [43] was > 100 µM and the TGI [44] was > 100 µM.

O=C(Nc1cccc(F)c1)c1cc2ccc(O)cc2oc1=Nc1cccc(F)c1 was tested, and the TGI [45] was > 100 µM, the TGI [1] was > 100 µM and the TGI [2] was > 100 µM. The TGI [3] was 74.5 µM, the TGI [4] was > 100 µM and the TGI [46] was 60.1 µM. For the same compound, the TGI [5] was > 100 µM, the TGI [6] was 32.4 µM and the TGI [7] was > 100 µM. For the same compound, the TGI [8] was > 100 µM, the TGI [9] was > 100 µM and the TGI [10] was > 100 µM. The TGI [11] was 6.72 µM, the TGI [12] was 34.3 µM and the TGI [13] was > 100 µM. For the same compound, the TGI [14] was > 100 µM, the TGI [15] was > 100 µM and the TGI [47] was > 100 µM. The TGI [16] was 14.7 µM, the TGI [17] was > 100 µM and the TGI [19] was > 100 µM. For the same compound, the TGI [20] was > 100 µM, the TGI [21] was > 100 µM and the TGI [22] was > 100 µM. It also gave a TGI [23] of 26.3 µM, a TGI [48] of 9.35 µM and a TGI [49] of 6.12 µM. For the same compound, the TGI [25] was > 100 µM, the TGI [26] was > 100 µM and the TGI [27] was > 100 µM. The TGI [50] was > 100 µM, the TGI [51] was 10.1 µM and the TGI [28] was 6.32 µM. The TGI [29] was 5.73 µM, the TGI [30] was > 100 µM and the TGI [31] was > 100 µM. The TGI [32] was > 100 µM, the TGI [52] was > 100 µM and the TGI [34] was > 100 µM. For the same compound, the TGI [35] was > 100 µM, the TGI [36] was 84 µM and the TGI [37] was > 100 µM. The TGI [38] was > 100 µM, the TGI [39] was > 100 µM and the TGI [40] was > 100 µM. The TGI [53] was > 100 µM, the TGI [41] was > 100 µM and the TGI [54] was 13 µM. For the same compound, the TGI [42] was > 100 µM, the TGI [55] was > 100 µM and the TGI [43] was 42.2 µM. The TGI [44] was > 100 µM and the TGI [56] was 50.8 µM.

For CCCCc1ccc(-n2sc3ncc(-c4ccccc4)cc3c2=O)cc1, the TGI [45] was > 100 µM, the TGI [1] was > 100 µM and the TGI [2] was > 100 µM. For the same compound, the TGI [3] was > 100 µM, the TGI [4] was > 100 µM and the TGI [46] was > 100 µM. For the same compound, the TGI [5] was > 100 µM, the TGI [57] was > 100 µM and the TGI [6] was > 100 µM. The TGI [7] was > 100 µM, the TGI [8] was > 100 µM and the TGI [9] was > 100 µM. The TGI [10] was > 100 µM, the TGI [11] was > 100 µM and the TGI [12] was > 100 µM. For the same compound, the TGI [13] was > 100 µM, the TGI [14] was > 100 µM and the TGI [15] was > 100 µM. For the same compound, the TGI [47] was > 100 µM, the TGI [16] was > 100 µM and the TGI [17] was > 100 µM. For the same compound, the TGI [19] was > 100 µM, the TGI [20] was > 100 µM and the TGI [22] was > 100 µM. The TGI [58] was > 100 µM, the TGI [23] was > 100 µM and the TGI [48] was > 100 µM. For the same compound, the TGI [24] was > 100 µM, the TGI [59] was > 100 µM and the TGI [49] was > 100 µM. The TGI [25] was > 100 µM, the TGI [26] was > 100 µM and the TGI [27] was > 100 µM. The TGI [50] was > 100 µM, the TGI [51] was > 100 µM and the TGI [28] was > 100 µM. The TGI [29] was > 100 µM, the TGI [30] was > 100 µM and the TGI [31] was > 100 µM. For the same compound, the TGI [32] was > 100 µM, the TGI [33] was > 100 µM and the TGI [34] was > 100 µM. The TGI [35] was > 100 µM, the TGI [37] was > 100 µM and the TGI [38] was > 100 µM. The TGI [39] was > 100 µM, the TGI [41] was > 100 µM and the TGI [42] was > 100 µM. For the same compound, the TGI [55] was > 100 µM, the TGI [43] was 69.5 µM and the TGI [44] was > 100 µM.

For O=C1CCCC/C1=C\c1ccc([N+](=O)[O-])cc1, the TGI [45] was 53.1 µM, the TGI [1] was 37.4 µM and the TGI [2] was > 100 µM. The TGI [3] was 57.1 µM, the TGI [4] was 30.7 µM and the TGI [5] was 46 µM. The TGI [57] was 52.1 µM, the TGI [6] was 30.4 µM and the TGI [7] was 25.7 µM. The TGI [8] was 28.1 µM, the TGI [9] was 29 µM and the TGI [10] was 35.7 µM. The TGI [11] was 30.4 µM, the TGI [12] was 59.3 µM and the TGI [13] was 40.8 µM. It also gave a TGI [14] of 41.5 µM, a TGI [15] of 83.5 µM and a TGI [47] of 32.5 µM. The TGI [16] was > 100 µM, the TGI [17] was 32.3 µM and the TGI [18] was 52.6 µM. For the same compound, the TGI [20] was > 100 µM, the TGI [21] was 38.5 µM and the TGI [58] was 46 µM. The TGI [23] was > 100 µM, the TGI [48] was 3.74 µM and the TGI [24] was 26.3 µM. The TGI [49] was 54.8 µM, the TGI [25] was 4.46 µM and the TGI [26] was 32.1 µM. The TGI [27] was > 100 µM, the TGI [50] was 29.6 µM and the TGI [51] was > 100 µM. The TGI [28] was 37.1 µM, the TGI [29] was 32.1 µM and the TGI [30] was 95.9 µM. The TGI [31] was 27.2 µM, the TGI [32] was 44.3 µM and the TGI [52] was 43.3 µM. For the same compound, the TGI [34] was 36.3 µM, the TGI [35] was 68.1 µM and the TGI [37] was > 100 µM. The TGI [38] was 30.9 µM, the TGI [39] was 30.9 µM and the TGI [40] was > 100 µM. For the same compound, the TGI [53] was > 100 µM, the TGI [54] was 30.2 µM and the TGI [42] was 23.5 µM. For the same compound, the TGI [55] was 51 µM, the TGI [43] was 65.3 µM and the TGI [44] was 38.4 µM. For the same compound, the TGI [56] was 70.8 µM.
